Columns and labels:
[1] = system: OCI-AML5 cells; experiment: Inhibition of OCI-AML5 cell proliferation (CellTiter-Glo); format: cell-based; conditions: Homo sapiens, OCI-AML-5; OCI-AML5 cells (SOS1 N233Y mutation), 120 hours
Method: The following method was used to determine the influence of the compounds of the present invention on OCI-AML5 cells proliferation. OCI-AML5 cells (containing SOS1 N233Y mutation) were purchased from Nanjing Kebai Biotechnology Co., Ltd. and cultured in MEMα medium containing 10% fetal bovine serum, 100 U penicillin, and 100 μg/mL streptomycin. The activities of the cells were determined by CellTiter-Glo® Luminescent Cell Viability Assay Kit (Promega, Art. No. G7573).
The experimental method was operated according to the steps in the kit instruction, which were briefly described as follows: the test compounds were first dissolved in DMSO to prepare storage solutions of 10 mM, and then diluted with culture mediums to prepare test samples. The final concentrations of the compounds were 10000 nM to 0.15 nM. Cells in logarithmic phase were inoculated in a 96-well cell culture plate with 1,000 cells per well, after cultured overnight in 5% CO2 incubator at 37° C., the test compounds were added to the incubator to continue the culture for 120 hours. After the culture was completed, 50 μL of CellTiter-Glo detection solution was added to each well, shaken for 5 minutes and then stood for 10 minutes. Then, a Luminescence mode was used to read the luminescence values of each well of the samples on a microplate reader.

[2] = Pharmacokinetic evaluation in ICR mice; format: in vivo; conditions: male, mouse, plasma, PO 10 mg/kg; for AUC(0-t): read-out: Area under curve AUC0-t; for half-life: read-out: Half-life T1/2 (converted); for Cmax: read-out: Plasma concentration Cmax
Source text: (§1) ICR normal mice were used as test animals, and LC/MS/MS was used to determine the drug concentrations at different moments in plasma of ICR mice by intragastric administration. The pharmacokinetic behavior of the compounds of the present invention in ICR mice was studied to evaluate the pharmacokinetic characteristics of the above compounds.
Compound 4, Compound 26 and Compound 32.
ICR mice, male, 27.8-38 g, were purchased from Zhejiang Vital River Laboratory Animal Technology Co., Ltd.
An appropriate amount of the compound was weighed, and DMA:30% Solutol HS-15:Saline=5:5:90 (v/v/v) was used as the solvent to prepare a fully dissolved solution, and then administered to obtain a 1 mg/mL colorless solution.
The ICR mice in the intragastric group of each compound to be tested (nine mice in each group) were fasted overnight followed by intragastric administration (administration dosage was 10 mg/kg and the administration volume was 10 mL/kg), and ate 4 hours after administration.
0.1 mL of blood was collected via orbit before administration and 0.25 hour, 0.5 hour, 1 hour, 2 hours, 4 hours, 8 hours, 12 hours, and 24 hours after administration, and placed in EDTA-K2 anticoagulant tubes. The collected blood samples were placed on ice, and plasma was separated by centrifugation (centrifugation condition: 1500 g, 10 minutes). The collected plasma samples were stored at −40˜−20° C. before analysis.
(§2) LC-MS/MS was used to determine the content of the compound to be tested in mouse plasma after intragastric administration.

[3] = Pharmacokinetic evaluation in Balb/c mice; format: in vivo; conditions: male, mouse, plasma, PO 10 mg/kg; for AUC(0-t): read-out: Area under curve AUC0-t; for half-life: read-out: Half-life T1/2 (converted); for Cmax: read-out: Plasma concentration Cmax
Source text: as §1, with “Balb/c normal” for “ICR normal”, “of balb/c” for “of ICR”, “in Balb/c” for “in ICR”
Compound 27 and Compound 30.
Nine Balb/c normal mice, male, were evenly divided into 3 groups, with 3 mice in each group, purchased from Zhejiang Vital River Laboratory Animal Technology Co., Ltd.
An appropriate amount of the compound was weighed, and DMA:30% Solutol HS-15:Saline=5:5:90 (v/v/v) was used as the solvent to prepare a fully dissolved solution with a concentration of 1 mg/mL.
The mice in the intragastric group of each compound to be tested (nine mice in each group) were fasted overnight followed by intragastric administration (administration dosage was 10 mg/kg and the administration volume was 10 mL/kg), and ate 4 hours after administration.
0.1 mL of blood was collected via jugular vein before administration and 0.25 hour, 0.5 hour, 1 hour, 2 hours, 4 hours, 6 hours, 8 hours, and 24 hours after administration, and placed in 0.1% sodium heparin anticoagulant test tubes. The collected blood samples were placed on ice, and plasma was separated by centrifugation (centrifugation condition: 7000 g, 5 minutes). The collected plasma samples were stored at −80° C. before analysis.
as §2

[4] = system: p-ERK1/2 in DLD-1 cells; experiment: Inhibition of p-ERK1/2 in DLD-1 cells (Cisbio Advanced phospho-ERK1/2 kit); format: cell-based; conditions: Homo sapiens; DLD-1 cells (KRAS G13D mutation), hEGF 5 nM stimulation; read-out: IC50 (nM) Inhibition on p-ERK½ in DLD-1 cells
Source text: The following method was used to determine the inhibition activities of the compounds of the present invention on p-ERK1/2 in DLD-1 cells. The Advanced phospho-ERK1/2 (Thr202/tyr2O4) kit (Art. No. 64AERPEH) from Cisbio was used in this method. Please refer to the kit instruction for detailed experimental operations. DLD-1 cells (containing KRAS G13D mutation) were purchased from the Cell Resource Center of Shanghai Institutes for Biological Sciences, Chinese Academy of Sciences.
The experimental process can be briefly described as follows: DLD-1 cells were cultured in RPMI 1640 complete medium containing 10% fetal bovine serum, 100 U penicillin, 100 μg/mL streptomycin and 1 mM Sodium Pyruvate. DLD-1 cells were plated in a 96-well plate at 30,000 cells per well, after cultured overnight in 5% CO2 incubator at 37° C. with complete culture medium. The test compounds were dissolved in DMSO to prepare storage solutions of 10 mM, and then diluted with RPMI 1640 basic mediums. 90 μL of RPMI 1640 basic mediums containing the test compounds at the corresponding concentration were added to each well. The final concentrations of the test compounds in the reaction system were 10,000 nM to 0.15 nM, and were placed in a cell culture incubator for 3 hours and 40 minutes. Subsequently, 10 μL of hEGF (purchased from Roche, Art. No. 11376454001) prepared with RPMI 1640 basic medium was added to a final concentration of 5 nM, and placed in the incubator for culturing for 20 minutes. The cell supernatant was discarded, and the cells were washed with PBS on ice-bath. Then, 45 μl of 1× cell phospho/total protein lysis buffer (component of Advanced phospho-ERK1/2 kit) was added to each well for lysis. The 96-well plate was placed on ice for 0.5 hours to lyse, and then the lysate was detected according to the instruction of the Advanced phospho-ERK1/2 (Thr202/tyr2O4) kit. Finally, the microplate reader was used in […] mode to measure the fluorescence intensity of each well emitting wavelengths of 620 nm and […] under the excitation wavelength of 304 nm, and the fluorescence intensity ratio 665/620 in each well was calculated. By comparing with the fluorescence intensity ratio of a control group (0.1% DMSO), the percentage inhibition rates of the test compounds at each concentration were calculated, and the IC50 values of the compounds were obtained by performing nonlinear regression analysis with logarithmic values of the compound concentration-inhibition rate by GraphPad Prism 5 software, which can be seen in Table 3.

| Compound | IC50 [1] [nM] | AUC(0-t) [2] [ng·h/mL] | half-life [2] [h] | Cmax [2] [ng/mL] | AUC(0-t) [3] [ng·h/mL] | half-life [3] [h] | Cmax [3] [ng/mL] | IC50 [4] [nM] |
| --- | --- | --- | --- | --- | --- | --- | --- | --- |
| CC(=O)c1cc2nc(C)nc(N[C@H](C)c3cccc(C#N)c3C)c2cc1N1CCC2(CC1)COC2 [Compound 26, (R)-3-(1-((7-acetyl-2-methyl-6-(2-oxa-7-azaspiro[3.5]nonan-7-yl)quinazolin-4-yl)amino)ethyl)-2-methylbenzonitrile] | 17.4 | 7700 | 1.98 | 2830 | – | – | – | – |
| COc1cc2nc(C)nc(N[C@H](C)c3cccc(C#N)c3C)c2cc1C1(OC)CCN(C(C)=O)CC1 [Compound 32, (R)-3-(1-((6-(1-acetyl-4-methoxypiperidin-4-yl)-7-methoxy-2-methylquinazolin-4-yl)amino)ethyl)-2-methylbenzonitrile] | – | 22100 | 2.29 | 5610 | – | – | – | – |
| CCOC(=O)N1CCN(c2cc3c(N[C@H](C)c4cccc(C#N)c4C)nc(C)nc3cc2OC)CC1 [Compound 30, ethyl (R)-4-(4-((1-(3-cyano-2-methylphenyl)ethyl)amino)-7-methoxy-2-methylquinazolin-6-yl)piperazine-1-carboxylate] | – | – | – | – | 10800 | 0.79 | 4660 | – |
| COc1cc2nc(C)nc(N[C@H](C)c3cccc(C#N)c3C)c2cc1N1CCC(N2CCN(C(C)=O)CC2)CC1 [Compound 27, (R)-3-(1-((6-(4-(4-acetylpiperazin-1-yl)piperidin-1-yl)-7-methoxy-2-methylquinazolin-4-yl)amino)ethyl)-2-methylbenzonitrile] | – | – | – | – | 4660 | 4.91 | 1150 | 31.2 |

Source: patent publication US20240382475A1, “Quinazoline Derivative, Or Preparation Method Therefor And Use Thereof” (Zhejiang Hisun Pharmaceutical Co., Ltd., priority 2021, published 2024)
